The record followed here is ChEMBL document CHEMBL3826975, “New indolizine-chalcones as potent inhibitors of human farnesyltransferase: Design, synthesis and biological evaluation” (Bioorg Med Chem Lett, 2016).

The target of experiment [1] is T1, Protein farnesyltransferase (Homo sapiens, UniProt P49354+P49356). Nature of the experiment: Inhibition of human recombinant farnesyltransferase using farnesylpyrophosphate and dansyl-GCVLS as substrate at 100 uM measured for 15 mins by fluorescence assay. In kind it is protein-complex assay.
Experiment [2] deals with T1, Protein farnesyltransferase. Description: Inhibition of human recombinant farnesyltransferase using farnesylpyrophosphate and dansyl-GCVLS as substrate measured for 15 mins by fluorescence assay. The class given is protein-complex assay.

With `CCOC(=O)c1cc(C(=O)/C=C/c2ccc3c(c2)Sc2ccccc2N3C)n2ccc(C)cc12`, the inhibition (commonly the percentage by which the read-out fell short of the control) in experiment [1] was 98%. Besides, in experiment [2], the IC50 (in general, the point on the concentration scale where inhibition reaches its midpoint) is 155 nM. As to `CSCC[C@H](NC(=O)c1ccc(NC[C@@H](N)CS)cc1-c1ccccc1)C(=O)O`, the inhibition in experiment [1] amounted to 100%.

Consider `CCOC(=O)c1cc(C(=O)/C=C/c2ccc(Cl)cc2)n2ccc(OC)cc12`, for which, in experiment [1], the inhibition was 85%. The half-inhibitory concentration (IC50) in experiment [2] worked out at 931 nM. As for `CCOC(=O)c1cc(C(=O)/C=C/c2ccc3c(c2)Sc2ccccc2N3C)n2ccccc12`, the inhibition in experiment [1] came out at 85%. In experiment [2], the IC50 turned out to be 9 nM. `CCOC(=O)c1cc(C(=O)/C=C/c2ccc(C#N)cc2)n2ccc(OC)cc12`: the inhibition in experiment [1] was determined as 95%. The IC50 in experiment [2] is 8740 nM. For `CCOC(=O)c1cc(C(=O)/C=C/c2cc(OC)c(OC)c(OC)c2)n2ccc(OC)cc12` the same measures were 76% and 11600 nM. For `CCOC(=O)c1cc(C(=O)/C=C/c2ccc(-c3ccccc3)cc2)n2ccc(OC)cc12` the same measures were 95% and 1320 nM. `CCOC(=O)c1cc(C(=O)/C=C/c2ccc3c(c2)Sc2ccccc2N3C)n2ccc(OC)cc12`: the inhibition in experiment [1] worked out at 84%. Also, in experiment [2], the IC50 amounted to 711 nM. For `CCOC(=O)c1cc(C(=O)/C=C/c2ccc3c(c2)Sc2ccccc2N3C)n2c(C)cccc12` the same measures were 91% and 23 nM. For `COc1ccn2c(C(=O)/C=C/c3ccc(Cl)cc3)cc(C(=O)O)c2c1` the same measures were 88% and 2330 nM. For `COc1cc(/C=C/C(=O)c2ccc3c(C)cc(C)cn23)cc(OC)c1OC`, the inhibition in experiment [1] turned out to be 88%. The IC50 in experiment [2] came to 726 nM. For `CCOC(=O)c1cc(C(=O)/C=C/c2cc(OC)c(OC)c(OC)c2)n2c(C)cccc12`, the inhibition in experiment [1] stood at 7%. Regarding `CCOC(=O)c1cc(C(=O)/C=C/c2cc(OC)c(OC)c(OC)c2)n2ccccc12`, in experiment [1], the inhibition was 94%. Moreover, in experiment [2], the half-inhibitory concentration (IC50) is 19300 nM.

Take `COc1cc(/C=C/C(=O)c2cc(C(=O)O)c3c(C)cc(C)cn23)cc(OC)c1OC`: the inhibition in experiment [1] is 88%. For the same molecule, the IC50 in experiment [2] worked out at 15900 nM. Turning to `CCOC(=O)c1cc(C(=O)/C=C/c2ccc(Br)cc2)n2ccc(OC)cc12`, in experiment [1], the inhibition was 100%. In experiment [2], the IC50 came out at 602 nM. As for `CCOC(=O)c1cc(C(=O)/C=C/c2ccc(OC)cc2)n2ccc(OC)cc12`, the inhibition in experiment [1] is 68%.
